Assays:
PC12 cells = assay: Cell viability, CCK8 method; assay type: cell-based, Rat; conditions: 24 h, CCK8, tested 37.5 to 1,200.0 μM
Method: Rat PC12 pheochromocytoma cells were obtained from the Cell Resource Center, Peking Union Medical College. PC12 cells were grown as monolayers in tissue culture flasks at 37°C under a humidified, 5% CO2 atmosphere in the high–glucose Dulbecco’s Modified Eagle Medium (DMEM) medium.
The CCK8 (MedChemExpress, United States) method was used to estimate the cytotoxic effects of POC. Before treatment, the cells were seeded onto 96-well culture plates at an appropriate density according to the experimental protocol. After 24 h, the medium was replaced with fresh medium containing varying concentrations (37.5, 75.0, 150.0, 300.0, 600.0, 1,200.0 μM) from the POC serial dilutions. And PC12 was allowed to grow for another 24 h. After incubation, the cell viability was evaluated using the CCK8 assay. The absorbance was read at 450 nm on a microplate reader. These cell viability experiments were made in triplicate.

[1] = Partition coefficient, shake-flask method (n-octanol / aqueous phase); assay type: physicochemical; conditions: n-octanol / aqueous phase buffered with phosphate pH 7.4, shake-flask, HPLC
Method: The partition coefficient of POC was established by the shake-flask method between n–octanol and an aqueous phase ([Redasani and Bari, 2012]). The aqueous phase buffered with phosphate (pH 7.4, 100 ml) and n–octanol (100 ml) was mixed well, placed in a shaking air bath for 72 h, and then left to equilibrate until the two saturated phases completely separated. POC (5 mg) was dissolved in 50 ml of saturated n-octanol and diluted with the saturated aqueous equally. The mixture was placed in an oscillator and shaken for 1 h until the two phases separated. Concentration was analyzed by HPLC method and then the partition coefficient was calculated as the ratio of the concentration of POC in n–octanol to aqueous. All experiments were made in triplicate.

IL–6, IL–1β, TNF–α = assay: ELISA assay for inflammatory cytokines in brain tissue of MCAO rats; assay type: in vivo; conditions: versus model group (p < 0.001), paeonol and OS 3 mg/kg, POC 4.5 mg/kg iv, n = 6
Method: Male Sprague Dawley (SD) rats weighing among 220 g-230 g (Anhui Medicine University, Hefei, China; certificate number: SCXK20190,003) were housed under ad libitum access to food and water with a standardized light-dark cycle condition (25 ± 2°C, 12-hour light/dark cycle). All the experimental protocols were performed in accordance with the Institutional Animal Care and Use Committee of Anhui University of Chinese Medicine (Animal ethics number: AHUCM-rats-2019001). We used the minimal number of study animals (n = 6 rats in each group for different experiments). The rats were fastened upon the operating table in a supine position after being anesthetized with 2% pelltobarbitalum natricum (50 mg/kg). After disinfection of the skin within close proximity of the operative region, the right common carotid artery (CCA), external carotid artery (ECA) and internal carotid artery (ICA) were exposed with blunt dissection. The CCA was temporarily ligated and the ECA were permanently ligated ([Liu et al., 2016]). […] According to the manufacturer's instructions, the levels of inflammatory cytokines (IL - 6, IL-1β, TNF-α; R&D Systems, Minneapolis, MN, United States) and TXA2 (Wuhan ColorfulGene Biological Technology Co., LTD) were detected using the commercial ELISA kits. The resultant colored products were measured the absorbance at 450 nm. […]

In the case of `COc1ccc(C(C)=O)c(OC(=O)C=Cc2ccc(Cn3ccnc3)cc2)c1` [POC, paeonol-ozagrel conjugate], the “concentration with no viability loss / no toxic effect” value (PC12 cells) is reported as “less than 75 μM”, the logD [1] is reported as 0.425 and the “release of inflammatory cytokines (IL–6, IL–1β, TNF–α) in brain tissue” value (IL–6, IL–1β, TNF–α) is reported as “can inhibit the expression of three markers of inflammatory cytokines”.
